According to the NIST ThermoML archive (doi:10.1016/j.jct.2014.02.005):
± gives the expanded uncertainty stated by the source.

Conditions: 101.33 kPa, Liquid, Vibrating tube method

Row | SMILES | mass density (288.2 K) [kg/m3] | mass density (298.2 K) [kg/m3] | mass density (313.2 K) [kg/m3]
1 | Cc1ccccc1 [toluene] | 871.92 ± 1 | 862.49 ± 1 | 848.23 ± 1
2 | CC(=O)O [acetic acid] | 1055.01 ± 1 | 1043.67 ± 1 | 1026.72 ± 1
3 | O [water] | – | – | 992.13 ± 1
